Measured values: patent US20120230974A1, “ALKALINE ALPHA GALACTOSIDASE FOR THE TREATMENT OF FABRY DISEASE” (PROTALIX LTD, priority 2009, published 2012)

Assays:
[1] = In vitro hydrolysis of Gb3-NBD by alpha galactosidases from different sources under various pH conditions (TLC); assay type: biochemical; settings: phosphate buffer pH 6.5, 60 min 37° C., a-Gal 50 ug/ml
Method: Green Coffee Bean-GCB a-Gal (Sigma #G8507)
Plant recombinant human alpha galactosidase was produced as described in WO2008/132743 (alpha-Gal-KDEL).
Commercial recombinant human alpha galactosidase (Replagal, Shire)
The following protocol was used for NBD-Gb3 hydrolysis:
90 μl activity buffer [citrate phosphate pH=4.6; phosphate buffer pH=6.5
10 μl of NBD-Gb3 0.35 ug/ul in Ethanol [35 ug/ml in reaction]
5 μl of a-Gal 1 mg/ml [50 ug/ml in reaction]
Incubation for 60 min in 37° C.
100 μl chloroform were added followed by vortex
50 μl methanol were added followed by vortex
Injection on TLC silica-60 plate, Chloroform: methanol: H2O [100:42:6] as mobile phase.

[2] = Activity assay with NBD-Gb3 in PBS pH 7.4 (HP-TLC); assay type: biochemical
Method: a-Gals: prh-alpha galactosidase, GCB a-Gal (endogenous green coffee bean).
80 μl PBS (sigma), pH=7.4
10 μl of NBD-Gb3 0.1 μg/ul in Ethanol [10 ug/ml in reaction]
10 μl of a-Gal 1 mg/ml [100 μg/ml in reaction]
Incubated for 60 min in 37° C.
150 μl chloroform: methanol (2:1) were added followed by vortex the lower phase pulled out speed-vac was effected to complete evaporation and the pellet dissolved in 50 μl Chloroform: methanol [1:1] All samples were injected on HP-TLC silica-60 plate [40 ul ]
Chloroform: methanol: H2O [100:42:6].

[3] = Biodistribution of fluorescent Gb3 in WT and Fabry mice; assay type: in vivo
From the text: For testing the hypothesis that circulating Gb3 can reach and accumulate in organs, organ uptake and biodistribution of fluorescent Gb3 (N-Dodecanoyl-NBD-ceramide trihexoside) in wild type (WT) and Fabry mice were effected.
Animals: Mice: Fabry mice and WT mice
Group Size: total 12 male mice, n=2
Materials: fluorescent Gb3 (N-Dodecanoyl-NBD-ceramide trihexoside; Catalog #: 1631, Matreya Pa. 16823 USA
Jackson B6J129Gla α-galactosidase-A-deficient mice (“Fabry mice”) were purchased from Jackson Laboratories. These mice are characterized by being totally deficient in α-Galactosidase-A activity and progressively accumulate Gb3 in both plasma and in the lysosomes of most tissues (in particular, the liver, spleen, heart, skin, and kidneys). In addition, these mice have no clinical disease phenotype and survive a normal laboratory life span (>2 years). Hemizygous affected males were bred to homozygous affected females, thereby providing only affected offspring. For these studies, all mice were affected adult males 12 to 30 weeks of age at study initiation.
Administration: IV injection, tail vein.
Gb3-NBD was injected to wild type and Fabry mice. Blood was collected 1 hour and 24 hours following injection and plasma was prepared using accepted methods. Gb3-NBD levels were determined using Fluorescent Elisa reader (Infinite M200; Tecan, Switzerland), subtracting basal fluorescent levels plasma of control mice injected with saline.
Gb3 presence was also detected with HP TLC (CAMAG, Switzerland)
Organs (liver, kidney heart and spleen) were collected from the mice of the experiment described above, and Gb3-NBD levels were determined by fluorescence detector and HPTLC as described. As the experiment was initial, low levels of Injected Gb3 NBD were given.

[4] = clinical studies; cited from earlier work

## Green coffee bean alpha gal: Endogenous green coffee bean alpha galactosidase (Sigma #G8507)
[1]
  Hydrolysis of Gb3-NBD to lactosylceramide-NBD: can hydrolyze NBD-Gb3
[2]; PBS pH 7.4
  Activity compared with plant recombinant human alpha Gal (upshift of band): works better
[2]; PBS pH 7.4, 60 min 37° C., a-Gal 100 μg/ml, HP-TLC
  Enzymatic activity on NBD-Gb3 under neutral to basic pH: demonstrate enzymatic activity
[2]; pH 7.4 vs acidic conditions of FIG. 3
  Activity under alkaline pH compared with the acidic conditions of FIG. 3: more active under alkaline pH conditions

## N-Dodecanoyl-NBD-ceramide trihexoside [Gb3-NBD]
[3]; 24 hours following iv injection, 320 ug/kg, WT and Fabry mice
  Gb3-NBD levels in plasma (fluorescence): fluorescence only in Fabry mice
[3]; iv 320 ug/kg, fluorescence detector
  Gb3-NBD fluorescent levels in plasma and organs (liver, kidney, heart, spleen): only detectable in Plasma (FIG. 5) and Liver
[3]; iv 320 ug/kg, inconclusive due to high background
  Gb3-NBD bands in organs by HPTLC: only in Fabry mice

B1: Replagal: Commercial recombinant human alpha galactosidase (Replagal, Shire) (protein, UniProt P06280 32-429, looked up)
Alpha-galactosidase A: LDNGLARTPTMGWLHWERFMCNLDCQEEPDSCISEKLFMEMAELMVSEGWKDAGYEYLCIDDCWMAPQRDSEGRLQADPQRFPHGIRQLANYVHSKGLKLGIYADVGNKTCAGFPGSFGYYDIDAQTFADWGVDLLKFDGCYCDSLENLADGYKHMSLALNRTGRSIVYSCEWPLYMWPFQKPNYTEIRQYCNHWRNFADIDDSWKSIKSILDWTSFNQERIVDVAGPGGWNDPDMLVIGNFGLSWNQQVTQMALWAIMAAPLFMSNDLRHISPQAKALLQDKDVIAINQDPLGKQGYQLRQGDNFEVWERPLSGLAWAVAMINRQEIGGPRSYTIAVASLGKGVACNPACFITQLLPVKRKLGFYEWTSRLRSHINPTGTVLLQLENTMQMSLKDLL
modifications: agalsidase alfa
[4]
  Clearance of Gb3 from plasma, kidney cells, capillary endothelial cells of heart and skin: proven efficacious
[1]
  Hydrolysis of Gb3-NBD to lactosylceramide-NBD: can partially hydrolyze Gb3

B2: Fabrazyme: Recombinant form of human α-galactosidase A (agalsidase beta, Genzyme) (protein, UniProt P06280 32-429, looked up)
Alpha-galactosidase A: LDNGLARTPTMGWLHWERFMCNLDCQEEPDSCISEKLFMEMAELMVSEGWKDAGYEYLCIDDCWMAPQRDSEGRLQADPQRFPHGIRQLANYVHSKGLKLGIYADVGNKTCAGFPGSFGYYDIDAQTFADWGVDLLKFDGCYCDSLENLADGYKHMSLALNRTGRSIVYSCEWPLYMWPFQKPNYTEIRQYCNHWRNFADIDDSWKSIKSILDWTSFNQERIVDVAGPGGWNDPDMLVIGNFGLSWNQQVTQMALWAIMAAPLFMSNDLRHISPQAKALLQDKDVIAINQDPLGKQGYQLRQGDNFEVWERPLSGLAWAVAMINRQEIGGPRSYTIAVASLGKGVACNPACFITQLLPVKRKLGFYEWTSRLRSHINPTGTVLLQLENTMQMSLKDLL
modifications: agalsidase beta
[4]
  Clearance of Gb3 from plasma, kidney cells, capillary endothelial cells of heart and skin: proven efficacious
